Data set [1] has as its system A549 cells. Put plainly: Apoptosis by cleaved PARP immunolabelling. In kind it is cell-based, human. To be noted: A549, 24 h. As to the method: The studied biscoumarin derivatives were added to cells seeded on 12-well μ-Chamber slides for 24 h. After cultivation with the derivatives, the samples (both the control without the derivatives and experimental groups) were washed with a 0.1 M PBS solution buffer to remove all non-cell-absorbed derivative residues and fixed with 4% paraformaldehyde for 20 min at RT. Alternatively, cells were incubated with Mitotracker Red (0.5 µM; Thermo Fisher Scientific, Waltham, MA, USA) for 30 min at 37 °C, washed with 0.1 M PBS, and fixed with 4% paraformaldehyde for 20 min at RT. For the quantification of proliferative activity and programmed cell death, samples were incubated overnight at 4 °C with the mouse anti-Ki67 antibody (NCL-L-Ki67-MM1, 1:100, Leica Biosystems, Wetzlar, Germany) and rabbit anti-cleaved PARP (cat. no. 94885, 1:100, Cell Signaling, Danvers, MA, USA) diluted in 0.1 M PBS containing 1% normal donkey serum (Jackson Immunoresearch, Cambridgeshire, Great Britain) and 0.3% Triton-X 100. […]
All samples were evaluated using a Leica TCS SP5X confocal system (Leica Microsystems, Mannheim, Germany). The biscoumarin derivatives were visualized in cells using a 405 nm laser, and the fluorescence was captured in the range of 420–480 nm with identical exposure parameters for all samples. […]

The target of the next data set is T1, human recombinant AChE (Homo sapiens, UniProt P22303).
T1 construct: purchased Sigma-Aldrich, Prague, Czech Republic
Put plainly: biochemical. The format is biochemical. To be noted: mean of at least three experiments. The protocol: (§1) Human recombinant AChE (EC 3.1.1.7), 5,5′-dithiobis(2-nitrobenzoic acid) (Ellman′s reagent, DTNB), phosphate buffer (PB, 0.1 M, pH 7.4), and acetylthiocholine (ATC) and butyrylthiocholine (BTC), were purchased from Sigma-Aldrich, Prague, Czech Republic. Human plasma was used as a source of BChE and was prepared from heparinized human blood. The blood was centrifuged for 20 min (4 °C, 2300× g) on a Hettich Universal 320R centrifuge. The plasma was separated and stored at […]. Polystyrene Nunc 96-well microplates with a flat bottom shape (ThermoFisher Scientific, Waltham, MA, USA) were used for measuring purposes.
(§2) All of the assays were carried out in a 0.1 M phosphate buffer, pH 7.4. The assay medium (100 µL) consisted of 40 µL of 0.1 M phosphate buffer (pH 7.4), 20 µL of 0.01 M DTNB, 10 µL of the enzyme, and 20 µL of 0.01 M substrate ATC/BTC iodide solution).
(§3) The tested compounds were preincubated for 5 min prior to use. The reaction was initiated immediately upon addition of 20 µL of the substrate. […] Each concentration was assayed in triplicate. Software GraphPad Prism 5 (San Diego, CA, USA) was used in the evaluation of the statistical data.

The target in the next data set is T2, hBChE (human plasma) (Homo sapiens, UniProt P06276).
T2 construct: Human plasma was used as a source of BChE; from tissue; host or cells: human plasma from heparinized blood
Put plainly: biochemical. The note with it: human plasma BChE, mean of at least three experiments. The format is biochemical. As to the method:
as §1, §2, §3

A further data set concerns CCD-18Co fibroblasts. Put plainly: MTT assay, CCD-18Co. In kind it is cell-based. The note with it: for pIC50: Homo sapiens, CCD-18Co. As to the method:
(§4) Human lung carcinoma cell line A549 and CCD-18Co colon fibroblasts were purchased from the American Type Culture Collection (ATCC, Rockville, MD, USA). The A549 cells were cultured in a complete RPMI-1640 medium (Sigma-Aldrich, St. Louis, MO, USA), and CCD-18Co cells were cultured in an MEM medium (PAN-Biotech GmbH, Aidenbach, Germany). The media were supplemented with 10% fetal bovine serum (FBS; Biosera, Nuaille, France) and antibiotics (1% Antibiotic-Antimycotic 100× and 50 × 10^−3 g l^−1 gentamicin; Biosera) at 37 °C, 95% humidity, and 5% CO2.
(§5) Prior to the selected treatments, cells were seeded on 12-well μ-Chamber slides (ibidi GmbH, Martinsried, Germany) and 6 and/or 96-well plates (TPP, Trasadingen, Switzerland) and left to settle for 24 h. The biscoumarin derivative solutions (at concentrations ranging from 10–100 µM) were then added to cells for 24 or 48 h, and analysis was subsequently performed.
(§6) MTT assays were performed in order to evaluate changes in the metabolic activity of cells that had occurred as a consequence of treatment with the biscoumarin derivatives. A549 cells (15 × 10^3 cells/cm^2) and CCD-18Co ([…]) were seeded in 96-well microplates. The cells were treated for 24 and 48 h with different concentrations (10, 25, 35, 50, 65, 75, and 100 µM) of the derivatives. After the treatment, the MTT (3-(4,5-dimethylthiazol-2-yl)-2,5-diphenyltertrazolium bromide) solution in PBS (5 mg mL^−1) was added to each well. […]. The absorbance of formazan (λ = 584 nm) was measured using a BMG FLUOstar Optima spectrometer (BMG Labtech GmbH, Offenburg, Germany). The results were evaluated as percentages of the absorbance of the untreated control. Results are presented as the average percentage of cells from three independent experiments. IC50 values for the derivatives were extrapolated from a sigmoidal fit (dose–response curve) to the metabolic activity data using OriginPro 8.5.0 SR1 (OriginLab Corp., Northampton, MA, USA).
In general terms: Tetrazolium dyes change colour on reduction, which living cells bring about.

In data set [2] the test system is A549 cells. Briefly: MTT assay, A549. The note with it: for pIC50: Homo sapiens. The format is cell-based, human. The protocol: as §4, §5, §6

pIC50: −log10 of the molar value. Where two headings read alike, the source gives them in different places. A value given as a limit tells only on which side of the number the result lay.

These results are taken from publication PMC8068036, “Synthesis of New Biscoumarin Derivatives, In Vitro Cholinesterase Inhibition, Molecular Modelling and Antiproliferative Effect in A549 Human Lung Carcinoma Cells” (International Journal of Molecular Sciences, 2021).

The pIC50 is −log10 of the IC50, conventionally taken in molar units.

T2 sequence (P06276 29-602): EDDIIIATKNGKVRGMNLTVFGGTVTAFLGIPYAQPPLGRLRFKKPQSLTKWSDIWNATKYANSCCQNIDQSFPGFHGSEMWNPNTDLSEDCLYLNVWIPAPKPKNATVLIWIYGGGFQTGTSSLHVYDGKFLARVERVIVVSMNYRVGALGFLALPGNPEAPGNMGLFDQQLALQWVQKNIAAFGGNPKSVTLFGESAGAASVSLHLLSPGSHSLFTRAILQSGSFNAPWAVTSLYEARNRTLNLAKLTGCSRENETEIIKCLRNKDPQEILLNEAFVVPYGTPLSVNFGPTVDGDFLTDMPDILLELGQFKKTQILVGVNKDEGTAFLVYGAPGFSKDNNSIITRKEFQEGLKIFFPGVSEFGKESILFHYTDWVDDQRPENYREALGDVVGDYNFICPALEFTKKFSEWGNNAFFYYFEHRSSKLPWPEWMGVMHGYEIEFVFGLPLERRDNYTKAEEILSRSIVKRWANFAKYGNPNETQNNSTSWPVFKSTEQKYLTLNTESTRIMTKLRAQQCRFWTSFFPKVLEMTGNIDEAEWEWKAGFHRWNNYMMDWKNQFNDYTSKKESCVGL
T1 sequence (P22303 32-614): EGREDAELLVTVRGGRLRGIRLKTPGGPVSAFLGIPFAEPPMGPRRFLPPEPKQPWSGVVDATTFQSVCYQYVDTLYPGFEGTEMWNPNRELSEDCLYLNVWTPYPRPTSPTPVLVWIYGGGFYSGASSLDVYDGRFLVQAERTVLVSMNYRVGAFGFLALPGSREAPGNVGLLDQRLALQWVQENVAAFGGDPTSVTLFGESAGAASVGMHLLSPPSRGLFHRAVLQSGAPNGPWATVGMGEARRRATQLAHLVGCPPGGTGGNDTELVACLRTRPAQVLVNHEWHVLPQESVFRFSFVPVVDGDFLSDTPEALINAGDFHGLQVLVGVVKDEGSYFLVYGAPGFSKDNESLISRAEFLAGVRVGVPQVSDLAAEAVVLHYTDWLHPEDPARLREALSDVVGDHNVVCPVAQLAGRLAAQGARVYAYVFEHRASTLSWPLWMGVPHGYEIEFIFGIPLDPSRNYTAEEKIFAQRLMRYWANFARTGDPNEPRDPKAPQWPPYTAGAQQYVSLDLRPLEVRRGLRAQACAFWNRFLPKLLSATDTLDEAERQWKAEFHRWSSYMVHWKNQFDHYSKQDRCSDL

Take `COC(=O)Cc1cc(=O)oc2cc(OCCCCCCCCN3CCN(CCNC(=O)Cc4cc(=O)oc5cc(O)ccc45)CC3)ccc12` [12e, Methyl 2-[7-({2-[4-(2-{[2-(7-hydroxy-2-oxo-2H-4-chromenyl)acetyl]amino}etyl)piperazino]oktyl}oxy)-2-oxo-2H-4-chromenyl]acetate]: in the data set with A549 cells [1], the “Apoptotic cells (cleaved PARP)” value is no more than 0.001%. For the same compound, on human recombinant AChE, the “IC50 ± S.E.M. hAChE” value is listed as “did not show inhibitory activity”. Also, the pIC50 on human recombinant AChE (read-out: IC50 ± S.E.M. hAChE) is less than 3.30; at hBChE (human plasma) (read-out: IC50 ± S.E.M. hBChE), less than 3.30; in the data set on CCD-18Co fibroblasts (24 h, read-out: IC50 CCD-18Co 24 h) it was less than 4.00; in the data set on CCD-18Co fibroblasts (read-out: IC50 CCD-18Co 48 h, 48 h) it was less than 4.00; in the data set on CCD-18Co fibroblasts (time not stated, read-out: IC50 CCD-18Co) it was less than 4.00; in the data set on A549 cells [2] (A549, 24 h, read-out: IC50 A549 24 h), 4.31. The pIC50 with A549 cells [2] (A549, read-out: IC50 A549 48 h, 48 h) was 4.46. For the same compound, the “IC50 ± S.E.M. hBChE” value at hBChE (human plasma) is “did not show inhibitory activity”. The “Metabolic activity of CCD-18Co cells (in words)” value in the data set on CCD-18Co fibroblasts (24 or 48 h) is listed as “significantly reduced metabolic activity”. Also, the “Metabolic activity of A549 cells (in words)” value with A549 cells [2] (10 to 100 μM, 24 and 48 h) is reported as “significant decrease”.
